In paper PMC8997995, “Amphiphilic Cell-Penetrating Peptides Containing Natural and Unnatural Amino Acids as Drug Delivery Agents” (Cells, 2022):
Non-standard residues stand in square brackets, D forms with d. Residues, ends and D or L forms follow the SMILES beside them. Dip = N[C@H](C(=O)O)C(c1ccccc1)c1ccccc1

Experiments:
Format in all cases: cell-based, human
MES-SA cells = assay: In vitro cytotoxicity (MTS) in MES-SA cells; conditions: 10 µM, 24 h incubation, n = 3
Protocol: SK-OV-3, CCRF-CEM, HEK-293, MDA-MB-468, LLC-PK1, and MES-SA were used to determine the cytotoxicity of the synthesized linear and cyclic peptides. About 5000, 10,000, and 50,000 cells were seeded for SK-OV-3, HEK-293, and CCRF-CEM cells, respectively, in 0.1 mL of medium per well of 96-well plates. […]
Adhesive cells were detached with 0.05% trypsin/EDTA after 15 min. […] The cell viability was measured by utilizing Multi-Mode Microplate Reader (SpectraMax M5 model, Molecular Devices, San Jose, CA, USA) after adding 20 µL of the MTS reagent to each well and incubating for 3 additional hours. […] The percentage of cell viability was calculated using the following equation:(1) =(Average OD values of samples treated with the compound /Average OD values of no treatment samples )∗100

MDA-MB-231 cells [1] = assay: Cellular uptake of F’-siRNA by flow cytometry in MDA-MB-231 cells; conditions: MDA-MB-231, F’-siRNA 36 nM, n = 3
MDA-MB-231 cells [2] = assay: Confocal microscopy of cellular uptake; conditions: MDA-MB-231, F’-GpYEEI 2 µM + peptide 10 μM, 3 h, 37 °C
Protocol: Coverslips were placed in a 6-well plate wells and covered with 2 mL of media. Human epithelial mammary gland/breast adenocarcinoma cells (MDA-MB-231, ATCC No. HTB-26) were used. 200,000 cells per well were seeded with DMEM media low glucose (4 mM L-glutamine, 1000 mg/L glucose, and 110 mg/L sodium pyruvate) overnight on a cover glass in 6-well plates. The cells were treated with the physical mixture of F’-GpYEEI and [DipR]5 (10 μM) or F’-[K(DipR)5] in DMEM media low glucose without FBS and incubated for 3 h at 37 °C in a humidified atmosphere of 5% CO2. Next, the media was removed, and cells were washed three times with 2 mL PBS in each well. Cells were fixed in 2 mL of 3.7% formaldehyde for 10 min and were washed 3 times in PBS (pH 7.6). 1 mL of the Texas red solution was pipetted (40 µL of Texas Red and 100 mg BSA in 10 mL of PBS) in each well to stay for 1 h at room temperature. The cells were washed at least 3 times with 2 mL of PBS for 5 min. The nucleic staining with 13 µL of DAPI on each slide was completed. Cells were covered with a coverslip carefully without air bubbles. The slide dried horizontally overnight in a dark place that had airflow. The cells were photographed and video recorded by using Nikon Instruments A1 Confocal Laser Microscope Series. […]

Structure (SMILES): N=C(N)NCCC[C@@H]1NC(=O)[C@H](C(c2ccccc2)c2ccccc2)NC(=O)[C@H](CCCNC(=N)N)NC(=O)[C@H](C(c2ccccc2)c2ccccc2)NC(=O)[C@H](CCCNC(=N)N)NC(=O)[C@H](C(c2ccccc2)c2ccccc2)NC(=O)[C@H](CCCNC(=N)N)NC(=O)[C@H](C(c2ccccc2)c2ccccc2)NC(=O)[C@H](CCCNC(=N)N)NC(=O)[C@H](C(c2ccccc2)c2ccccc2)NC1=O [[DipR]5] (cyclo([Dip]R[Dip]R[Dip]R[Dip]R[Dip]R))
- reduction of cell proliferation (MES-SA cells): 38%
- increase of cellular uptake of F’-siRNA vs siRNA alone (MDA-MB-231 cells [1]; N/P ratio 10, 24 h): 30 fold
- increase of cellular uptake of F’-siRNA vs siRNA alone (MDA-MB-231 cells [1]; N/P ratio 20, 24 h): 50 fold
- localization of F’-GpYEEI delivered by the peptide (MDA-MB-231 cells [2]): mostly localized in the cytosol
